# Test results: patent publication US20200299306A1, “COMPOUNDS WITH A BENZO[A]CARBAZOLE STRUCTURE AND USE THEREOF” (UNIVERSITA' DI PISA, priority 2017, published 2020)
# Like-named read-outs stand apart in the source and are kept apart here.
# Tests used:
# [1] = molecular target: T1, p53/MDM2 complex (Homo sapiens, UniProt Q00987); assay: Inhibitory effect on p53/MDM2 complex binding, cell lysate of human glioblastoma U343MG cells; conditions: for inhibition at 10 µM: read-out: % inhibition at 10 uM of p53/MDM2 complex binding
# T1 construct: Test performed on cell lysate of human glioblastoma (GBM) cells U343MG; endogenous in cells; host or cells: U343MG human glioblastoma cells (lysate)
# Experimental: Test performed on cell lysate of human glioblastoma (GBM) cells U343MG (1,2).
# [2] = test system: protein p53; assay: Stabilisation of intracellular levels of protein p53 (343MG); type: cell-based, human; conditions: U343MG; FIG. 3
# Excerpt: 1) Costa, B; Grillone, A F; Salvetti, A; Rocchiccioli, S; Iacopetti, P; Daniele, S; Da Pozzo, E; Campiglia, P; Novellino, E; Martini, C; Rossi, L An antibody-free strategy for screening putative HDM2 inhibitors using crude bacterial lysates expressing GST-HDM2 recombinant protein Drug Testing and Analysis (2013), 5, 7, 596-601.
# 2) Costa B, Bendinelli S, Gabelloni P, Da Pozzo E, Daniele S, et al. Human Glioblastoma Multiforme: p53 Reactivation by a Novel MDM2 Inhibitor. PLoS ONE (2013) 8(8): e72281. doi:10.1371/journal.pone.0072281.
# The results are set out in FIG. 3.
# [3] = test system: p53; assay: Stabilisation of p53 (U343MG); type: cell-based, human; conditions: due to reduction of p53 bonded to MDM2, not mRNA induction, FIG. 1
# [4] = test system: U343MG; assay: Effect on cell apoptosis (U343MG); type: cell-based, human; conditions: FIG. 7 and FIG. 8
# Experimental: 8) Effect of RM37 on cell apoptosis (U343MG; 1,2). […] The results are set out in FIG. 7 and FIG. 8.
# [5] = test system: U343MG; assay: Effect on cell cycle (U343MG); type: cell-based, human; conditions: FIG. 6
# Experimental: 7) Effect of RM37 on cell cycle (U343MG; 1,2). […] The results are set out in FIG. 6.
# [6] = cell lysate of human glioblastoma (GBM) cells U343MG
# [7] = 10 uM, cell lysate of human glioblastoma (GBM) cells U343MG
# T1 sequence (Q00987 whole entry, one chain of several): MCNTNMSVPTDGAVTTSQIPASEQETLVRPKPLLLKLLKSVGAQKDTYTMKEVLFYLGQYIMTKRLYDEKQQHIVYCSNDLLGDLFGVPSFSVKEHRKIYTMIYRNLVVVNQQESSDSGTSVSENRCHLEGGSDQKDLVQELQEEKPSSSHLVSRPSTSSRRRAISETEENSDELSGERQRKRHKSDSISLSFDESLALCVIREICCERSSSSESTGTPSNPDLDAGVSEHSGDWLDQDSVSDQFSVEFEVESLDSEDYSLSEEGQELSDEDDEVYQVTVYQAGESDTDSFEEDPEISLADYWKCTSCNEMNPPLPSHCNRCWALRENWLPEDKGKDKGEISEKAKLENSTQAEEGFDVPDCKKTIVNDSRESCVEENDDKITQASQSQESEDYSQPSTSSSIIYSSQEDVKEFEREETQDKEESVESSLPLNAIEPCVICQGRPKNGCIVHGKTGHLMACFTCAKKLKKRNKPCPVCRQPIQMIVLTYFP
"IC50 [1, 6] [nM]",SMILES,further results
650 ± 50,CC(=O)OCC1=C(C(=O)OC(C)(C)C)N2C(=O)[C@@H](NC(=O)COc3ccc4c(c3)CCc3c-4[nH]c4cccc([N+](=O)[O-])c34)[C@H]2SC1 [GA09a],
225 ± 20,CC(=O)OCC1=C(C(=O)OC(C)(C)C)N2C(=O)[C@@H](NC(=O)COc3ccc4c(c3)CCc3c-4[nH]c4cc([N+](=O)[O-])ccc34)[C@H]2SC1 [GA09b],
12700 ± 1500,COc1cc2c(cc1OC)-c1c(c3c(N)cccc3n1CCCN(C)C)CCC2 [GA17M8],
920 ± 20,O=C(COc1ccc2c(c1)S(=O)(=O)CCc1c-2[nH]c2ccc(F)cc12)NCc1ccc(F)c(F)c1 [RA1],
2900 ± 120,COc1ccc2[nH]c3c(c2c1)CCCc1cc(OCC(=O)O)ccc1-3 [RA2],
620 ± 50,CN(C)C(=O)C(CCCNC(=O)OCc1ccccc1)NC(=O)COc1ccc2c(c1)S(=O)(=O)NCc1c-2[nH]c2ccc(F)cc12 (stereo not shown) [RA3],
,CCNC(=O)COc1ccc2c(c1)S(=O)(=O)Cc1c-2[nH]c2ccc(F)cc12 [RA13],"inhibition at 10 µM [1, 7]: 22%"
,Clc1ccc2[nH]c3c(c2c1)COc1ccccc1-3 [RA15],"inhibition at 10 µM [1, 7]: < 5%"
,COc1ccc2c(c1)-c1[nH]c3ccc(Cl)cc3c1CO2 [RA16],"inhibition at 10 µM [1, 7]: < 5%"
1350 ± 150,CNC(=O)C(CCCNC(=O)OCc1ccccc1)NC(=O)COc1ccc2c(c1)OCc1c-2[nH]c2ccc(F)cc12 (stereo not shown) [RA18],
450 ± 15,CNC(=O)C(CCCNC(=O)OCc1ccccc1)NC(=O)COc1ccc2c(c1)OCc1c-2[nH]c2ccc(OCC(=O)NC(CCc3ccccc3)C(=O)N(C)C)cc12 (stereo not shown) [RA19],
1550 ± 250,CNC(=O)C(CCCNC(=O)OCc1ccccc1)NC(=O)COc1ccc2c(c1)NCc1c-2[nH]c2ccc(F)cc12 (stereo not shown) [RA20],
143 ± 16,CC(=O)OCC1=C(C(=O)OC(C)(C)C)N2C(=O)C(NC(=O)COc3ccc4c(c3)S(=O)(=O)Cc3c-4[nH]c4ccc(F)cc34)C2SC1 (stereo not shown) [RA25],
120 ± 90,COc1ccc(COC(=O)C2N3C(=O)C(NC(=O)COc4ccc5c(c4)S(=O)(=O)Nc4c-5[nH]c5ccc(Br)cc45)C3SC2(C)C)cc1 (stereo not shown) [RA26],
100 ± 30,CCNC(=O)CO/N=C1/Cc2c([nH]c3ccc(F)cc23)-c2ccc(OCC(=O)NC3C(=O)N4C3SC(C)(C)C4C(=O)OCc3ccc(OC)cc3)cc21 (stereo not shown) [RA29],
150 ± 10,CCNC(=O)C(CCCNC(=O)OCc1ccccc1)NC(=O)CC1C(NC(=O)COc2ccc3c(c2)S(=O)(=O)Cc2c-3[nH]c3ccc(F)cc23)C(=O)N1CC(=O)OCc1ccc(OC)cc1 (stereo not shown) [RA30],

"IC50 [1, 6] [nM]",SMILES,further results
120 ± 45,CC(=O)OCC1=C(C(=O)OC(C)(C)C)N2C(=O)C(NC(=O)COc3ccc4c(c3)OCc3c-4[nH]c4ccc(F)cc34)C2S(=O)(=O)C1 (stereo not shown) [RA31],
375 ± 22,COc1ccc(COC(=O)C2N3C(=O)C(NC(=O)COc4ccc5c(c4)OCc4c-5[nH]c5ccc(Br)cc45)C3SC2(C)C)cc1 (stereo not shown) [RA35],
220 ± 100,CC(=O)OCC1=C(C(=O)OC(C)(C)C)N2C(=O)C(NC(=O)COc3ccc4c(c3)S(=O)(=O)Nc3c-4[nH]c4ccc(F)cc34)C2SC1 (stereo not shown) [RA36],
180 ± 150,CCOC(=O)CO/N=C1/Cc2c([nH]c3ccc(F)cc23)-c2ccc(OCC(=O)NC3C(=O)N4C(C(=O)OC(C)(C)C)=C(COC(C)=O)CSC34)cc21 (stereo not shown) [RA37],
197 ± 124,CC(=O)OCC1=C(C(=O)OC(C)(C)C)N2C(=O)C(NC(=O)COc3ccc4c(c3)S(=O)(=O)NCc3c-4[nH]c4ccc(F)cc34)C2SC1 (stereo not shown) [RA40],
292 ± 25,CC(C)(C)OC(=O)C1N2C(=O)C(NC(=O)COc3ccc4c(c3)S(=O)(=O)NCc3c-4[nH]c4ccc(F)cc34)C2SC1(C)C (stereo not shown) [RA42],
223 ± 22,CCNC(=O)C(CCCNC(=O)OCc1ccccc1)NC(=O)CC1C(NC(=O)COc2ccc3c(c2)S(=O)(=O)NCc2c-3[nH]c3ccc(F)cc23)C(=O)N1CC(=O)OCc1ccc(OC)cc1 (stereo not shown) [RA44],
280 ± 20,CC(=O)OCC1=C(C(=O)OC(C)(C)C)N2C(=O)C(NC(=O)COc3ccc4c(c3)CCc3c-4[nH]c4ccc(Cl)cc34)C2SC1 (stereo not shown) [RM36],
222 ± 210,CC(=O)OCC1=C(C(=O)OC(C)(C)C)N2C(=O)C(NC(=O)COc3ccc4c(c3)/C(=N\O)Cc3c-4[nH]c4ccc(F)cc34)C2SC1 (stereo not shown) [RM38],
232 ± 200,CC(=O)OCC1=C(C(=O)OC(C)(C)C)N2C(=O)C(NC(=O)COc3ccc4c(c3)C(=O)Cc3c-4[nH]c4ccc(C(F)(F)F)cc34)C2SC1 (stereo not shown) [RM39],
228 ± 16,COc1ccc(COC(=O)C2N3C(=O)C(NC(=O)COc4ccc5c(c4)S(=O)(=O)CCc4c-5[nH]c5ccc(F)cc45)C3SC2(C)C)cc1 (stereo not shown) [RM43],
195 ± 22,CC(=O)OCC1=C(C(=O)OC(C)(C)C)N2C(=O)C(NC(=O)COc3ccc4c(c3)CCc3c-4[nH]c4ccc(Br)cc34)C2SC1 (stereo not shown) [RM47],
,"CC(=O)OCC1=C(C(=O)O)N2C(=O)[C@@H](NC(=O)COc3ccc4c(c3)CCc3c-4[nH]c4ccc(F)cc34)[C@H]2SC1 [RM53, (6R,7R)-7-(2-[(8-fluoro-6,11-dihydro-5H-benzo[a]carbazol-3-yl)oxy]acetamido)-3-(acetoxymethyl)-8-oxy-5-thia-1-azabicyclo[4.2.0]oct-2-ene-2-carboxylic acid]","inhibition at 10 µM [1, 7]: < 5%"
,CN(C)CCCn1c2ccc(Cl)cc2c2ccc3cc(OCC(=O)O)ccc3c21 [RM58],"inhibition at 10 µM [1, 7]: 58%"
2700 ± 120,CCOC(=O)/C(COc1ccc2c(ccc3c4cc(Cl)ccc4n(CCCN(C)C)c23)c1)=N/OC [RM66],
,COC(=O)C(NC(=O)COc1ccc2c(ccc3c4cc(Cl)ccc4n(CCCN(C)C)c23)c1)c1ccccc1 (stereo not shown) [RM85],inhibition at 10 µM [1]: 82%

SMILES,"IC50 [1, 6] [nM]",further results
"CC(=O)OCC1=C(C(=O)OC(C)(C)C)N2C(=O)[C@@H](NC(=O)COc3ccc4c(c3)CCc3c-4[nH]c4ccc(F)cc34)[C@H]2SC1 [RM37, (6R, 7R)-tert-butyl-7-(2-(8-fluoro-6,11-dihydro-5H-benzo[a]carbazol-3-yloxy)acetamido)-3-(acetoxymethyl)-8-oxo-5-thia-1-azabicyclo[4.2.0]oct-2-ene-2-carboxylate]",222 ± 44,Stabilisation of intracellular levels of protein p53 [2]: stabilises the intracellular levels of protein p53; Stabilisation of p53 [3]: stabilisation of p53; Effect on cell apoptosis [4]: induces cell apoptosis; Effect on cell cycle [5]: blocks the cell cycle in G1
